The series in a line: RP, Agilent ZORBAX Eclipse Plus C18, 50 × 4.6 mm, 1.8 µm, 0.5 mL/min, estimated dead time 1.1 min; A: water + 0.1% formic acid; B: acetonitrile + 0.1% formic acid; gradient (min/%B) 0/10 3/10 25/100 28/100. The conditions noted are these: stereoisomer not certain.

The structures appear in SMILES notation.

`CCOc1ccc2c3c1OC1C(O)C=CC4C(C2)N(C)CCC341` (stereo not given): the LC retention time was 5.83 min.
For `CN(C)C1C(=O)C(C(N)=O)=C(O)C2(O)C(=O)C3=C(O)c4c(O)cccc4C(C)(O)C3C(O)C12` (stereo not given) the value was 6.11 min; for `CNC(=O)Oc1ccc(N(C)C)c(C)c1`, 1.85 min; for `COc1ccc2cc(C(C)C(=O)O)ccc2c1` (stereo not given), 13.8 min.
The result for `COC(=O)Nc1nc2ccc(C(=O)c3ccccc3)cc2[nH]1` reads 10.7 min; that for `CCC1OC(=O)C(C)C(OC2CC(C)(OC)C(O)C(C)O2)C(C)C(OC2OC(C)CC(N(C)C)C2O)C(C)(O)CC(C)C(=NOCOCCOC)C(C)C(O)C1(C)O` (stereo not given), 11.3 min; that for `C=C(C)C1CCC(C)=CC1c1c(O)cc(CCCCC)cc1O` (stereo not given), 21.2 min.
In the case of `CC(C)C1(C)N=C(c2nc3ccccc3cc2C(=O)O)NC1=O` (stereo not given), the LC retention time is 11 min.
For `CC12CCC3C(CCC4=CC(=O)CCC43C)C1CCC2=O` (stereo not given) the value was 14.8 min; for `CC(C)NCC(O)COc1ccc(CC(N)=O)cc1` (stereo not given), 1.76 min; for `CNC(=O)ON=C(C)SC`, 5.39 min.
Take `CCC(C)C(=O)OC1CC(O)C=C2C=CC(C)C(CCC(O)CC(O)CC(=O)O)C21` (stereo not given): the LC retention time is 10.7 min.
Take `CCC(C)(CC)c1cc(NC(=O)c2c(OC)cccc2OC)on1`: the LC retention time is 16.5 min.
On to `CN(C(=O)COc1nc2ccccc2s1)c1ccccc1`, for which the LC retention time is 16 min.
Consider `CC12CCC(=O)C=C1CCC1C2CCC2(C)C(O)CCC12` (stereo not given), for which the LC retention time is 13.7 min.
The result for `CSc1nnc(C(C)(C)C)c(=O)n1N` reads 11.5 min; that for `CNC(=O)N(C)c1nc2ccccc2s1`, 12.1 min.
The result for `CCC1CCCC(OC2CCC(N(C)C)C(C)O2)C(C)C(=O)C2=CC3C(C=C(C)C4CC(OC5OC(C)C(OC)C(OC)C5OC)CC43)C2CC(=O)O1` (stereo not given) reads 14.2 min.
For `C=C(C)C1Cc2c(ccc3c2OC2COc4cc(OC)c(OC)cc4C2C3=O)O1` (stereo not given) the value was 17.2 min; for `NC(=O)N1c2ccccc2C=Cc2ccccc21`, 11.2 min.
In the case of `CC1=NNC(=O)N(N=Cc2cccnc2)C1`, the LC retention time was 1.4 min.
As to `CNC(=O)ON=C(C)C(C)S(C)(=O)=O` (stereo not given), the LC retention time is 4.36 min.
As to `CCNc1nc(NC(C)(C)C)nc(SC)n1`, the LC retention time is 18.3 min.
The result for `CCOP(=S)(OCC)OP(=S)(OCC)OCC` reads 19.3 min; that for `Cc1ccc(C)c(OCCCC(C)(C)C(=O)O)c1`, 18.1 min; that for `CCC(C)C1OC2(C=CC1C)CC1CC(CC=C(C)C(OC3CC(OC)C(OC4CC(OC)C(NC(C)=O)C(C)O4)C(C)O3)C(C)C=CC=C3COC4C(O)C(C)=CC(C(=O)O1)C34O)O2` (stereo not given), 21.2 min.
`CCCCC1C(=O)N(c2ccccc2)N(c2ccccc2)C1=O`: the LC retention time is 17.2 min.
The result for `Cn1cnc2c1c(=O)[nH]c(=O)n2C` reads 1.96 min; that for `CNC(=O)N(C)c1nnc(C(C)(C)C)s1`, 9.87 min; that for `O=NN1CCCC1`, 2.66 min.
For `COP(=O)(NC(C)=O)SC` (stereo not given) the value was 1.86 min.
The result for `CC(C)Cc1ccc(C(C)C(=O)O)cc1` (stereo not given) reads 16.6 min.
Consider `COC1C(O)CC(=O)OC(C)CC=CC=CC(OC2CCC(N(C)C)C(C)O2)C(C)CC(CC=O)C1OC1OC(C)C(OC2CC(C)(O)C(O)C(C)O2)C(N(C)C)C1O` (stereo not given), for which the LC retention time is 7.59 min.
For `COc1nn(CSP(=S)(OC)OC)c(=O)s1` the value was 15.3 min.
The result for `CCOC(=O)N(C)C(=O)CSP(=S)(OCC)OCC` reads 17.8 min; that for `Cc1cc(C)c(C2=C(OC(=O)CC(C)(C)C)C3(CCCC3)OC2=O)c(C)c1`, 23.1 min.
As to `Cc1cc(NS(=O)(=O)c2ccc(N)cc2)no1`, the LC retention time was 9.06 min.
The result for `CCC1OC(=O)C(C)C(OC2CC(C)(OC)C(O)C(C)O2)C(C)C(OC2OC(C)CC(N(C)C)C2O)C(C)(OC)CC(C)C(=O)C(C)C(O)C1(C)O` (stereo not given) reads 11.1 min; that for `Cn1c(=O)c2[nH]cnc2n(C)c1=O`, 2.8 min.
For `CC1(C)SC2C(NC(=O)C(N)c3ccccc3)C(=O)N2C1C(=O)O` (stereo not given) the value was 7.93 min; for `CC(=O)CC(c1ccccc1)c1c(O)c2ccccc2oc1=O` (stereo not given), 14.9 min.
For `CCCCCCCCCCCC[N+](C)(C)Cc1ccccc1` the value was 16.2 min; for `CCCCC(CC)COC(=O)c1ccccc1C(=O)OCC(CC)CCCC` (stereo not given), 27.5 min; for `CNC(=O)Oc1cccc2c1OC(C)(C)C2`, 12.1 min.
On to `CNC(=O)Oc1ccccc1OC(C)C`, for which the LC retention time is 11.9 min.
In the case of `CSc1nc(NC(C)C)nc(NC(C)C)n1`, the LC retention time was 12.1 min.
Turning to `COP(=S)(OC)SCn1nnc2ccccc2c1=O`, the LC retention time was 15.4 min.
Consider `CCn1cc(C(=O)O)c(=O)c2cnc(N3CCNCC3)nc21`, for which the LC retention time is 4.78 min.
`Cc1cc(=O)n(-c2ccccc2)n1C`: the LC retention time was 6.97 min.
For `Cc1cccc(Nc2ccccc2C(=O)O)c1C` the value was 17.7 min.
The result for `CNC(=O)ON=CC(C)(C)SC` reads 10.2 min; that for `COCC(=O)N(c1c(C)cccc1C)C(C)C(=O)OC` (stereo not given), 12.9 min; that for `CCOc1ccc2c(c1)C(C)=CC(C)(C)N2`, 11.8 min.
Take `c1ccc(Nc2ccccc2)cc1`: the LC retention time is 17.2 min.
The result for `CCOP(=S)(OCC)Oc1ccc(=O)n(-c2ccccc2)n1` reads 16.1 min.
The result for `O=C1CCc2cccc3c2N1CC3` reads 10.2 min.
For `CCOP(=S)(OCC)SCn1nnc2ccccc2c1=O` the value was 17.4 min.
Regarding `CON=C(C(=O)OC)c1ccccc1COc1ccccc1C`, the LC retention time was 18 min.
The result for `O=C(O)c1ccccc1C(=O)Nc1cccc2ccccc12` reads 11.7 min; that for `CCSCc1ccccc1OC(=O)NC`, 13.1 min.
Turning to `CCSC(=O)N1CCCCCC1`, the LC retention time is 16 min.
For `CCOC(=O)C1CC(=O)C(=C(O)C2CC2)C(=O)C1` (stereo not given) the value was 14.2 min; for `CCOP(=S)(OCC)Oc1ccc(S(C)=O)cc1` (stereo not given), 13.5 min; for `CCOP(=S)(OCC)SCSP(=S)(OCC)OCC`, 21.7 min.
Turning to `CNC(=O)ON=C(C)C(C)SC` (stereo not given), the LC retention time was 9.65 min.
Regarding `CN(C)CCOC(c1ccccc1)c1ccccc1`, the LC retention time is 9.81 min.
Turning to `Cn1c(=O)c2c(ncn2C)n(C)c1=O`, the LC retention time was 5.08 min.
For `CC(C)C1(C)N=C(c2ncccc2C(=O)O)NC1=O` (stereo not given) the value was 16.5 min; for `CCOP(=O)(Sc1ccccc1)Sc1ccccc1`, 17.6 min.
For `CCCCCc1cc(O)c2c(c1)OC(C)(C)C1CCC(C)=CC21` (stereo not given) the value was 23.6 min; for `Cc1nnc(NS(=O)(=O)c2ccc(N)cc2)s1`, 7.12 min; for `CC(=O)OC1C=CC2C3Cc4ccc(O)c5c4C2(CCN3C)C1O5` (stereo not given), 4.94 min.
Turning to `COP(=S)(OC)Oc1ccc(SC)c(C)c1`, the LC retention time was 18.5 min.
The result for `CCCCc1c(C)nc(NCC)nc1OS(=O)(=O)N(C)C` reads 14.4 min; that for `COC(=O)C(C)N(C(=O)Cc1ccccc1)c1c(C)cccc1C` (stereo not given), 18.1 min.
Take `CC12CCC3c4ccc(O)cc4CCC3C1CCC2O` (stereo not given): the LC retention time was 13.4 min.
The result for `CC(C(=O)O)c1cccc(C(=O)c2ccccc2)c1` (stereo not given) reads 13.7 min; that for `Nc1ccc(S(N)(=O)=O)cc1`, 1.82 min.
In the case of `CC1=C(C(=O)Nc2ccccc2)SCCO1`, the LC retention time was 13.1 min.
`CCOC(=O)NCCOc1ccc(Oc2ccccc2)cc1`: the LC retention time was 17 min.
For `CC(C)NCC(O)COc1cccc2ccccc12` (stereo not given) the value was 9.19 min.
On to `CC(C)(C)NCC(O)COc1nsnc1N1CCOCC1` (stereo not given), for which the LC retention time was 6.87 min.
As for `NC(=O)Cc1cccc2ccccc12`, the LC retention time was 10 min.
The result for `CCCSc1ccc2nc(NC(=O)OC)[nH]c2c1` reads 10.5 min.
As for `CN1C(=O)CCC1c1cccnc1` (stereo not given), the LC retention time is 1.35 min.
Regarding `CCOP(=S)(OCC)Oc1cc(C)nc(C(C)C)n1`, the LC retention time is 18.8 min.
For `CCCN(CCC)c1c([N+](=O)[O-])cc(S(N)(=O)=O)cc1[N+](=O)[O-]` the value was 17 min; for `Cc1c(N)c(=O)n(-c2ccccc2)n1C`, 2.39 min.
For `c1coc(-c2nc3ccccc3[nH]2)c1` the value was 5.19 min; for `CCSC(=O)N(CC)C1CCCCC1`, 19.8 min; for `CC(C)(C)NCC(O)c1ccc(O)c(CO)c1` (stereo not given), 1.63 min.
As for `COP(N)(=O)SC` (stereo not given), the LC retention time was 1.61 min.
As to `Cc1cc(C)nc(Nc2ccccc2)n1`, the LC retention time is 11.6 min.
Regarding `COC(=O)c1ccccc1CS(=O)(=O)NC(=O)Nc1nc(OC)cc(OC)n1`, the LC retention time was 14.2 min.
For `CCCCCc1cc(O)c2c(c1)OC(C)(C)C1CCC(C(=O)O)=CC21` (stereo not given) the value was 19.1 min.
Consider `CNC(=O)ON=CC(C)(C)S(C)=O` (stereo not given), for which the LC retention time is 2.7 min.
The result for `CN(C)C1C(=O)C(C(N)=O)=C(O)C2(O)C(=O)C3=C(O)c4c(O)cccc4C(C)(O)C3CC12` (stereo not given) reads 6.62 min; that for `COc1cc(NS(=O)(=O)c2ccc(N)cc2)nc(OC)n1`, 10.4 min; that for `Cc1ncc([N+](=O)[O-])n1CCO`, 2.77 min.
The result for `CCOC(=O)C(CCc1ccccc1)NC(C)C(=O)N1CCCC1C(=O)O` (stereo not given) reads 9.21 min.

The values are drawn from the RepoRT retention time repository (doi:10.1016/j.chroma.2014.05.003).
